In assay [1] the test system is Mice. As to the kind of experiment: Infection of mice by reovirus (Example 7). Particulars: co-administered with the virus. The format is in vivo.
Assay [2] deals with JAM-A. Description: FD-based AFM single-virus force spectroscopy on JAM-A-coated model surfaces. The format is binding. The conditions noted are these: for change in JAM-A-T3SA− binding or multivalent interactions: 1 mM glycan injected, FIG. 6a-c. How it is done:
NHS-PEG27-acetal linkers were used to functionalize AFM tips as described (Gruber. Crosslinkers and Protocols for AFM Tip Functionalization. https://wwwjku.at/institut-fuer-biophysik/forschung/linked, 2018; Wildling et al. Linking of sensor molecules with amino groups to aminofunctionalized AFM tips. Bioconjug. Chem. 2011, vol. 22, 1239-1248). AFM tips (PFQNM-LC and MSCT probes, Bruker) were immersed in chloroform for 10 min, rinsed with ethanol, dried with a stream of filtered nitrogen, cleaned for 10 min using an ultraviolet radiation and ozone (UV-0) cleaner (Jetlight), and immersed overnight in an ethanolamine solution (3.3 g of ethanolamine hydrochloride in 6.6 mL of DMSO). The cantilevers were washed three times with DMSO, and two times with ethanol and dried with nitrogen. To ensure a low grafting density of the linker on the AFM tip, 1 mg of acetal-PEG27-NHS was diluted in 0.5 mL of chloroform with 30 μL of […] (Gruber, supra; Wildling et al., supra). Ethanolamine-coated cantilevers were immersed for 2 h in this solution, washed three times with chloroform, and dried with nitrogen. Cantilevers were then immersed for 10 min in 1% citric acid in milliQ water, washed three times with milliQ water, and dried with nitrogen. Virus solution (80 μL at ˜10^8 to 10^9 particles mL^−1) was pipetted onto the tips placed on Parafilm (Bemis NA) in a small plastic dish stored within an icebox. A freshly prepared solution of NaCNBH3 (2 μL at ˜6% wt. in 0.1 M NaOH(aq)) was gently mixed into the virus solution, and the cantilever chips were gently positioned with the cantilevers extending into the virus drop. The icebox was incubated at 4° C. for 1 h. Then, 5 μL of 1 M ethanolamine solution (pH 8) was gently mixed into the drop to quench the reaction. […]
His6-tagged JAM-A (Bio-Connect Life Science) was immobilized using NTA-His6 binding chemistry, as described (Dupres et al. 2005, supra; Dufrêne. Life at the nanoscale: atomic force microscopy of live cells. Pan Stanford Publishing, 2011). […] The thickness was measured as described for sialic-acid-coated model surfaces.
AFM Nanoscope Multimode 8 (Bruker) was used (Nanoscope software v9.1) to conduct FD-based AFM. Virus-functionalized MSCT-D probes (with spring constants calculated using thermal tune, ranging from 0.024 to 0.043 N m^−1) (Butt & Jaschke. Calculation of thermal noise in atomic-force microscopy. Nanotechnol. 1995, vol. 6, 1-7) were used to record force curves from 5×5 μm arrays in the force-volume (contact) mode. […]

`CC(=O)N[C@H]1[C@H](O[C@H]2[C@@H](O)[C@@H](CO)O[C@@H](O[C@H]3[C@H](O)[C@@H](O)C(O)O[C@@H]3CO)[C@@H]2O)O[C@H](CO)[C@@H](O[C@@H]2O[C@H](CO)[C@H](O)[C@H](O)[C@H]2O)[C@@H]1O` (mixture of isomers) [LNnT, lacto-N-neotetraose, reference compound]: the “effect on infectivity of T3SA+ in mice” value in assay [1] is reported as “does not affect infectivity”. The “effect on the overall binding of T3SA+ to JAM-A” value in assay [2] (1 mM glycan, FIG. 5d) was “had no effect”.
`CC(=O)N[C@H]1[C@H]([C@H](O)[C@H](O)CO)OC(O)(C(=O)O)C[C@@H]1O` (stereo partly drawn) [Neu5Ac, N-acetylneuraminic acid]: in assay [1], the “effect on infectivity of T3SA+ in mice” value is reported as “significantly increase infectivity” and the “effect on infectivity of T3SA− in mice” value is given as “do not affect infectivity”. In addition, the “change in T3SA+ISVP-JAM-A multivalent binding behavior” value in assay [2] (1 mM free glycan, FIG. 16) is “does not induce any change”. Also, in assay [2], the “change in JAM-A-T3SA− binding or multivalent interactions” value is on record as “does not induce any change”.
Turning to sialyl-lacto-N-tetraose a [LSTa], in assay [1], the “effect on infectivity of T3SA+ in mice” value is reported as “significantly increase infectivity” and the “effect on infectivity of T3SA− in mice” value is given as “do not affect infectivity”. Further, the “change in JAM-A-T3SA− binding or multivalent interactions” value in assay [2] is on record as “does not induce any change”.
